Tested on: human colon carcinoma (HT29)
Experiment: Antitumor activity on human colon carcinoma (HT29) transplanted in nude mice
Format: in vivo
Details: for TI % (tumor inhibition %): calculated at day 46, HT29 sc in nude mice
Method: Campound (A1a) was tested on human colon carcinoma (HT29) transplanted in nude mice, in comparison with the free drug 7-ethyl-10-hydroxycamptothecin (12) by i.v. route. A1a was found non toxic at all tested doses and gave 98% tumor inhibition at the highest tested dose of 20 mg/kg (Table 1).

[1] = dose 10 mg/kg i.v. q4dx6, total dose 60 mg/kg
[2] = dose 20 mg/kg i.v. q4dx6, total dose 120 mg/kg
[3] = dose 30 mg/kg i.v. q4dx6, total dose 180 mg/kg
[4] = dose 40 mg/kg i.v. q4dx6, total dose 240 mg/kg

Row | Compound | Tox (number of mice died for toxicity/total number mice) [1] | TI % (tumor inhibition %) [1] [%] | Tox (number of mice died for toxicity/total number mice) [2] | TI % (tumor inhibition %) [2] [%] | toxicity (all tested doses, i.v., nude mice bearing HT29) | TI % (tumor inhibition %) (dose 20 mg/kg i.v. q4dx6, total dose 120 mg/kg, listed as Ala) [%] | Tox (number of mice died for toxicity/total number mice) [3] | TI % (tumor inhibition %) [3] [%] | Tox (number of mice died for toxicity/total number mice) [4] | TI % (tumor inhibition %) [4] [%]
1 | CCc1c2c(nc3ccc(O)cc13)-c1cc3c(c(=O)n1C2)COC(=O)[C@]3(O)CC [Compound 12, 7-ethyl-10-hydroxycamptothecin, reference compound] | 0/7 | 67 | 3/7 | 97 | – | – | – | – | – | –
2 | Copolymer of N-(2-hydroxypropyl)methacryloylamide, 7-ethyl-10-hydroxy-20-O-[N-methacryloyl-6-aminohexanoyl-(methionyl-sulfoxide)-glycyl-(S-benzyl-cysteinyl)-leucyl-glycyl]camptothecin and N-(2-hydroxypropyl)methacryloylglycinamide [Compound A1a] | 0/7 | 85 | 0/7 | 98 | non toxic | 97 | 0/7 | 97 | 0/7 | 97

Reference: US20030195152A1, “Polymeric conjugates of antitumor agents” (priority 2000, published 2003)
